Measurements published in paper PMC3585750, “Modulation of TRP channels by resveratrol and other stilbenoids” (Molecular Pain, 2013).

Legend:
[1] = target: T1, TRPA1 (mTRPA1) (Mus musculus, UniProt Q8BLA8); assay: whole-cell patch clamp, agonist concentration-response in transfected HEK293 cells; no current in untransfected cells; assay type: cell-based
[2] = target: T1, TRPA1 (mTRPA1); assay: whole-cell patch clamp, inhibition of AITC-induced current in transfected HEK293 cells; assay type: cell-based

T1 sequence (Q8BLA8 whole entry): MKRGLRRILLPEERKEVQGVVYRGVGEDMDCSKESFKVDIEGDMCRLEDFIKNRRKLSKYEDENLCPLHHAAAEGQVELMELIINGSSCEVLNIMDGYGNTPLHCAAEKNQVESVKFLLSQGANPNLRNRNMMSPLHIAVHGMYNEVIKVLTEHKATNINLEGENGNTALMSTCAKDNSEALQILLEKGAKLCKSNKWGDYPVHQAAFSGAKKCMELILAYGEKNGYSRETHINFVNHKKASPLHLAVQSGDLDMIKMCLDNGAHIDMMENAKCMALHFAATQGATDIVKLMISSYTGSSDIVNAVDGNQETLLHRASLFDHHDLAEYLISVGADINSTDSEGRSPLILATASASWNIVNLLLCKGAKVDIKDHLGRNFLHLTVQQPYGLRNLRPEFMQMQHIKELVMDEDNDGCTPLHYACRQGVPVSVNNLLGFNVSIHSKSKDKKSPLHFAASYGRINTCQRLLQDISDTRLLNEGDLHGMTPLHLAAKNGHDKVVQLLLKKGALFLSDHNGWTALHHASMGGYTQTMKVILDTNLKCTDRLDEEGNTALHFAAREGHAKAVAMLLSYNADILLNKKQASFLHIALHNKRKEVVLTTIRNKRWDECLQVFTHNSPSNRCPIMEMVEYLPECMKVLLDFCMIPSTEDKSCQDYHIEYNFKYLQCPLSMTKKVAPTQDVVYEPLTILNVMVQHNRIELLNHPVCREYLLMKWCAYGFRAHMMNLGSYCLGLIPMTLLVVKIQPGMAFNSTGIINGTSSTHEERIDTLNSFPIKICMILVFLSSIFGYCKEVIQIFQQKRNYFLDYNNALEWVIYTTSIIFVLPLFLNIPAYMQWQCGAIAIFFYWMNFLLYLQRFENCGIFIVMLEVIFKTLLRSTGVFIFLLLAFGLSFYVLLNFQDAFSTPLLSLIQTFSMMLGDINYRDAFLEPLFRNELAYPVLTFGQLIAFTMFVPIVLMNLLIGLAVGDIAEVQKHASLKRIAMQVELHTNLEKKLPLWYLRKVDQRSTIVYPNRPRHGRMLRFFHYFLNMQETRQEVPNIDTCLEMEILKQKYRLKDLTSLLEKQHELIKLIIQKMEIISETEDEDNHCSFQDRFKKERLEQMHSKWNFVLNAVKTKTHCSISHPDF

| Structure (SMILES) | EC50 [1] [µM] | IC50 [2] [µM] |
| --- | --- | --- |
| C=CCN=C=S [AITC, allyl isothiocyanate] | 61.2 | – |
| Oc1ccc(/C=C/c2cc(O)cc(O)c2)cc1 [RES, 3,5,4’ - trihydroxy-trans-stilbene] | – | ~0.75 |
